In PubChem BioAssay (NCI):
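How tested: cells in 96-well plates exposed to compound for 48 hours at five concentrations. The concentration for 50% growth inhibition is given as GI50. TGI: total growth inhibition.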

Experiments:
Experiment in all cases: NCI anticancer screen, dose series, 48 h
SF-539 CNS = test system: SF-539 CNS
ACHN renal = test system: ACHN renal
HOP-92 NSCLC = test system: HOP-92 NSCLC
PC-3 prostate = test system: PC-3 prostate
SN12C renal = test system: SN12C renal
MALME-3M melanoma = test system: MALME-3M melanoma
SF-268 CNS = test system: SF-268 CNS
HCT-116 colon = test system: HCT-116 colon
SF-295 CNS = test system: SF-295 CNS
OVCAR-8 ovarian = test system: OVCAR-8 ovarian
SW-620 colon = test system: SW-620 colon
A498 renal = test system: A498 renal
HS 578T breast = test system: HS 578T breast
U251 CNS = test system: U251 CNS
OVCAR-5 ovarian = test system: OVCAR-5 ovarian
NCI-H226 lung = test system: NCI-H226 lung
NCI-H522 lung = test system: NCI-H522 lung
RXF 393 renal = test system: RXF 393 renal
NCI-H460 lung = test system: NCI-H460 lung
HCC-2998 colon = test system: HCC-2998 colon
CAKI-1 renal = test system: CAKI-1 renal
KM12 colon = test system: KM12 colon
UACC-257 melanoma = test system: UACC-257 melanoma
SNB-19 CNS = test system: SNB-19 CNS
COLO 205 colon = test system: COLO 205 colon
HOP-62 NSCLC = test system: HOP-62 NSCLC
TK-10 renal = test system: TK-10 renal
EKVX NSCLC = test system: EKVX NSCLC
IGROV1 ovarian = test system: IGROV1 ovarian
SNB-75 CNS = test system: SNB-75 CNS
SR leukemia = test system: SR leukemia
BT-549 breast = test system: BT-549 breast
T-47D breast = test system: T-47D breast
A549 NSCLC = test system: A549 NSCLC
786-0 renal = test system: 786-0 renal
K-562 leukemia = test system: K-562 leukemia
DU-145 prostate = test system: DU-145 prostate
LOX IMVI melanoma = test system: LOX IMVI melanoma
HT29 colon = test system: HT29 colon
UO-31 renal = test system: UO-31 renal
M14 melanoma = test system: M14 melanoma
NCI/ADR-RES ovarian = test system: NCI/ADR-RES ovarian
CCRF-CEM leukemia = test system: CCRF-CEM leukemia
RPMI-8226 leukemia = test system: RPMI-8226 leukemia
UACC-62 melanoma = test system: UACC-62 melanoma
MDA-MB-435 = test system: MDA-MB-435
NCI-H23 lung = test system: NCI-H23 lung
SK-MEL-2 melanoma = test system: SK-MEL-2 melanoma
OVCAR-3 ovarian = test system: OVCAR-3 ovarian
SK-OV-3 ovarian = test system: SK-OV-3 ovarian
MOLT-4 leukemia = test system: MOLT-4 leukemia
SK-MEL-28 melanoma = test system: SK-MEL-28 melanoma
HCT-15 colon = test system: HCT-15 colon
MCF7 breast = test system: MCF7 breast
MDA-MB-231 breast = test system: MDA-MB-231 breast
OVCAR-4 ovarian = test system: OVCAR-4 ovarian
SK-MEL-5 melanoma = test system: SK-MEL-5 melanoma
HL-60(TB) leukemia = test system: HL-60(TB) leukemia

Work on `c1ccc(-c2n(Cc3ccc4ccccc4n3)cc[n+]2Cc2ccc3ccccc3c2)cc1` yielded a GI50 (SF-539 CNS) of 1450 nM, a TGI (SF-539 CNS) of 4640 nM and a GI50 (ACHN renal) of 3350 nM. It also gave a TGI (ACHN renal) of 11400 nM, a GI50 (HOP-92 NSCLC) of 175 nM and a TGI (HOP-92 NSCLC) of 1460 nM. The GI50 (PC-3 prostate) was 1310 nM, the TGI (PC-3 prostate) was 5510 nM and the GI50 (SN12C renal) was 1440 nM. For the same compound, the TGI (SN12C renal) was 4360 nM, the GI50 (MALME-3M melanoma) was 810 nM and the TGI (MALME-3M melanoma) was 2780 nM. The GI50 (SF-268 CNS) was 1910 nM, the TGI (SF-268 CNS) was 5500 nM and the GI50 (HCT-116 colon) was 1240 nM. The TGI (HCT-116 colon) was 3370 nM, the GI50 (SF-295 CNS) was 1730 nM and the TGI (SF-295 CNS) was 4730 nM. It also gave a GI50 (OVCAR-8 ovarian) of 1630 nM, a TGI (OVCAR-8 ovarian) of 4400 nM and a GI50 (SW-620 colon) of 1910 nM. It also gave a TGI (SW-620 colon) of 7400 nM, a GI50 (A498 renal) of 1160 nM and a TGI (A498 renal) of 4790 nM. The GI50 (HS 578T breast) was 1940 nM, the TGI (HS 578T breast) was 6310 nM and the GI50 (U251 CNS) was 923 nM. For the same compound, the TGI (U251 CNS) was 3250 nM, the GI50 (OVCAR-5 ovarian) was 2050 nM and the TGI (OVCAR-5 ovarian) was 7270 nM. For the same compound, the GI50 (NCI-H226 lung) was 1300 nM, the TGI (NCI-H226 lung) was 7330 nM and the GI50 (NCI-H522 lung) was 706 nM. It also gave a TGI (NCI-H522 lung) of 3420 nM, a GI50 (RXF 393 renal) of 1340 nM and a TGI (RXF 393 renal) of 3380 nM. It also gave a GI50 (NCI-H460 lung) of 1790 nM, a TGI (NCI-H460 lung) of 5800 nM and a GI50 (HCC-2998 colon) of 767 nM. The TGI (HCC-2998 colon) was 2240 nM, the GI50 (CAKI-1 renal) was 1590 nM and the TGI (CAKI-1 renal) was 3540 nM. For the same compound, the GI50 (KM12 colon) was 823 nM, the TGI (KM12 colon) was 2420 nM and the GI50 (UACC-257 melanoma) was 557 nM. The TGI (UACC-257 melanoma) was 3030 nM, the GI50 (SNB-19 CNS) was 865 nM and the TGI (SNB-19 CNS) was 3540 nM. It also gave a GI50 (COLO 205 colon) of 752 nM, a TGI (COLO 205 colon) of 2260 nM and a GI50 (HOP-62 NSCLC) of 2010 nM. The TGI (HOP-62 NSCLC) was 6130 nM, the GI50 (TK-10 renal) was 1610 nM and the TGI (TK-10 renal) was 4110 nM. For the same compound, the GI50 (EKVX NSCLC) was 2330 nM, the TGI (EKVX NSCLC) was 12800 nM and the GI50 (IGROV1 ovarian) was 783 nM. For the same compound, the TGI (IGROV1 ovarian) was 2430 nM, the GI50 (SNB-75 CNS) was 624 nM and the TGI (SNB-75 CNS) was 3150 nM. For the same compound, the GI50 (SR leukemia) was 573 nM, the TGI (SR leukemia) was 3110 nM and the GI50 (BT-549 breast) was 1630 nM. The TGI (BT-549 breast) was 3700 nM, the GI50 (T-47D breast) was 378 nM and the TGI (T-47D breast) was 4360 nM. The GI50 (A549 NSCLC) was 2910 nM, the TGI (A549 NSCLC) was 12100 nM and the GI50 (786-0 renal) was 2240 nM. It also gave a TGI (786-0 renal) of 6120 nM, a GI50 (K-562 leukemia) of 427 nM and a TGI (K-562 leukemia) of 4360 nM. For the same compound, the GI50 (DU-145 prostate) was 2700 nM, the TGI (DU-145 prostate) was 11300 nM and the GI50 (LOX IMVI melanoma) was 955 nM. It also gave a TGI (LOX IMVI melanoma) of 2310 nM, a GI50 (HT29 colon) of 979 nM and a TGI (HT29 colon) of 4590 nM. The GI50 (UO-31 renal) was 2930 nM, the TGI (UO-31 renal) was 13200 nM and the GI50 (M14 melanoma) was 1250 nM. It also gave a TGI (M14 melanoma) of 3350 nM, a GI50 (NCI/ADR-RES ovarian) of 19500 nM and a TGI (NCI/ADR-RES ovarian) of 66800 nM. It also gave a GI50 (CCRF-CEM leukemia) of 1220 nM, a TGI (CCRF-CEM leukemia) of 6180 nM and a GI50 (RPMI-8226 leukemia) of 288 nM. The TGI (RPMI-8226 leukemia) was 1520 nM, the GI50 (UACC-62 melanoma) was 631 nM and the TGI (UACC-62 melanoma) was 2060 nM. For the same compound, the GI50 (MDA-MB-435) was 799 nM, the TGI (MDA-MB-435) was 2500 nM and the GI50 (NCI-H23 lung) was 731 nM. The TGI (NCI-H23 lung) was 4870 nM, the GI50 (SK-MEL-2 melanoma) was 1200 nM and the TGI (SK-MEL-2 melanoma) was 3120 nM. The GI50 (OVCAR-3 ovarian) was 766 nM, the TGI (OVCAR-3 ovarian) was 2630 nM and the GI50 (SK-OV-3 ovarian) was 1800 nM. It also gave a TGI (SK-OV-3 ovarian) of 4690 nM, a GI50 (MOLT-4 leukemia) of 1640 nM and a TGI (MOLT-4 leukemia) of 4380 nM. The GI50 (SK-MEL-28 melanoma) was 936 nM, the TGI (SK-MEL-28 melanoma) was 2840 nM and the GI50 (HCT-15 colon) was 5210 nM. For the same compound, the TGI (HCT-15 colon) was 17900 nM, the GI50 (MCF7 breast) was 1210 nM and the TGI (MCF7 breast) was 3430 nM. For the same compound, the GI50 (MDA-MB-231 breast) was 1160 nM, the TGI (MDA-MB-231 breast) was 3320 nM and the GI50 (OVCAR-4 ovarian) was 366 nM. It also gave a TGI (OVCAR-4 ovarian) of 6130 nM, a GI50 (SK-MEL-5 melanoma) of 538 nM and a TGI (SK-MEL-5 melanoma) of 1550 nM. It also gave a GI50 (HL-60(TB) leukemia) of 256 nM and a TGI (HL-60(TB) leukemia) of 880 nM.
